Results from the supplement of paper PMC11451515.

System: SEM cells
Assay: cell viability relative to DMSO control; higher = less cytotoxic
Conditions: 48 h
Method in brief: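 NOMO1 or SEM cells were plated at 500 cells/well and P12-Ichikawa cells at 1000 cells/well in 1536-well plates (5 μl), after each leukemia line had been adapted for at least four passages in each medium. Pin dosing delivered library compounds in DMSO at 11 threefold concentrations, 47 μM to 0.79 nM. CellTiter-Glo One luminescence was read after 48 h at 37°C. Viability is reported as a per-plate percentage of DMSO wells, with cell-free wells as background.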

[1] = HPLM + 10% dialyzed FBS, 0.000781 µM
[2] = HPLM + 10% dialyzed FBS, 0.00234 µM
[3] = HPLM + 10% dialyzed FBS, 0.00702 µM
[4] = HPLM + 10% dialyzed FBS, 0.0211 µM
[5] = HPLM + 10% dialyzed FBS, 0.0632 µM
[6] = HPLM + 10% dialyzed FBS, 0.19 µM
[7] = HPLM + 10% dialyzed FBS, 0.569 µM
[8] = HPLM + 10% dialyzed FBS, 1.71 µM
[9] = HPLM + 10% dialyzed FBS, 5.12 µM
[10] = HPLM + 10% dialyzed FBS, 15.4 µM
[11] = HPLM + 10% dialyzed FBS, 46.1 µM
[12] = RPMI 5 mM glucose + 10% FBS, 0.000781 µM
[13] = RPMI 5 mM glucose + 10% FBS, 0.00234 µM
[14] = RPMI 5 mM glucose + 10% FBS, 0.00702 µM
[15] = RPMI 5 mM glucose + 10% FBS, 0.0211 µM
[16] = RPMI 5 mM glucose + 10% FBS, 0.0632 µM
[17] = RPMI 5 mM glucose + 10% FBS, 0.19 µM
[18] = RPMI 5 mM glucose + 10% FBS, 0.569 µM
[19] = RPMI 5 mM glucose + 10% FBS, 1.71 µM
[20] = RPMI 5 mM glucose + 10% FBS, 5.12 µM
[21] = RPMI 5 mM glucose + 10% FBS, 15.4 µM
[22] = RPMI 5 mM glucose + 10% FBS, 46.1 µM
[23] = RPMI 5 mM glucose + 10% dialyzed FBS, 0.000781 µM
[24] = RPMI 5 mM glucose + 10% dialyzed FBS, 0.00234 µM
[25] = RPMI 5 mM glucose + 10% dialyzed FBS, 0.00702 µM
[26] = RPMI 5 mM glucose + 10% dialyzed FBS, 0.0211 µM
[27] = RPMI 5 mM glucose + 10% dialyzed FBS, 0.0632 µM
[28] = RPMI 5 mM glucose + 10% dialyzed FBS, 0.19 µM
[29] = RPMI 5 mM glucose + 10% dialyzed FBS, 0.569 µM
[30] = RPMI 5 mM glucose + 10% dialyzed FBS, 1.71 µM
[31] = RPMI 5 mM glucose + 10% dialyzed FBS, 5.12 µM
[32] = RPMI 5 mM glucose + 10% dialyzed FBS, 15.4 µM
[33] = RPMI 5 mM glucose + 10% dialyzed FBS, 46.1 µM

SMILES | cell viability [1] | cell viability [2] | cell viability [3] | cell viability [4] | cell viability [5] | cell viability [6] | cell viability [7] | cell viability [8] | cell viability [9] | cell viability [10] | cell viability [11] | cell viability [12] | cell viability [13] | cell viability [14] | cell viability [15] | cell viability [16] | cell viability [17] | cell viability [18] | cell viability [19] | cell viability [20] | cell viability [21] | cell viability [22] | cell viability [23] | cell viability [24] | cell viability [25] | cell viability [26] | cell viability [27] | cell viability [28] | cell viability [29] | cell viability [30] | cell viability [31] | cell viability [32] | cell viability [33]
CCN1\C=C(\C(O)=O)C(=O)C2=CC=C(C)N=C12 | 72.7% | 70.2% | 82.7% | 87.4% | 99% | 97.5% | 92% | 94.8% | 96.4% | 19.8% | 97.3% | 86% | 93.3% | 102% | 97.1% | 93% | 108% | 90.9% | 98.9% | 103% | 13.6% | 76.5% | 86.9% | 82.3% | 103% | 97.9% | 86.3% | 111% | 103% | 96.6% | 66% | 21.3% | 78.5%
C/C=C(/C)C(=O)O[C@H]1C(C)=C[C@]23C(=O)[C@@H](C=C(CO)[C@@H](O)[C@]12O)[C@H]1[C@@H](C[C@H]3C)C1(C)C | 93.9% | 121% | 87.5% | 90% | 92.4% | 82.1% | 72% | 92.5% | 87.7% | 70.3% | 54.9% | 120% | 114% | 101% | 102% | 100% | 71.9% | 66.9% | 79.9% | 82.6% | 72.7% | 43.8% | 115% | 135% | 101% | 107% | 113% | 93.7% | 104% | 100% | 91.5% | 82.4% | 42.6%
CC(C)NC[C@@H](C(=O)N1CCN(c2ncnc3c2[C@H](C)C[C@H]3O)CC1)c1ccc(Cl)cc1 | 113% | 103% | 115% | 89.3% | 87.6% | 63.6% | 36.9% | 23.1% | 12.1% | 9.57% | 1.69% | 103% | 112% | 127% | 101% | 74.3% | 61.3% | 36.9% | 32.5% | 13.8% | 5.24% | 1.73% | 117% | 90.3% | 93% | 79.4% | 93.2% | 48.5% | 34.9% | 20.5% | 9.56% | 4.26% | 2.07%
O=C(NC[C@H](O)CO)c1ccncc1Nc1ccc(I)cc1F | 94.4% | 104% | 38.1% | 118% | 106% | 105% | 88.3% | 83.4% | 85.7% | 85.4% | 64.4% | 94.4% | 97.6% | 19.3% | 101% | 108% | 89.2% | 85.7% | 80.1% | 68.3% | 64.6% | 43.6% | 97.2% | 108% | 35.1% | 99% | 99.8% | 85.3% | 84.2% | 70.3% | 72.7% | 56.3% | 54.7%
C\C1=C(\C=C(\C#N)C(=O)N1)C2=CC=NC=C2 | 82.7% | 86.9% | 91.6% | 104% | 101% | 113% | 99.3% | 111% | 96.7% | 126% | 113% | 109% | 92.5% | 113% | 109% | 121% | 112% | 108% | 112% | 84.9% | 122% | 97.8% | 115% | 101% | 111% | 130% | 118% | 117% | 96.4% | 109% | 105% | 109% | 114%
COc1ncc(-c2ccc3nccc(-c4ccnnc4)c3c2)cc1N[S+](=O)([O-])c1ccc(F)cc1F | 81% | 71.8% | 60.5% | 66.9% | 59.4% | 50.4% | 43.9% | 30% | 21.1% | 6.8% | 6.02% | 79% | 65% | 74.8% | 61.7% | 51.9% | 46.7% | 37% | 19.2% | 14.2% | 6.8% | 5.84% | 98.1% | 79.9% | 67.8% | 68.7% | 64.6% | 54.4% | 51.9% | 26.5% | 16.7% | 6.57% | 5.89%
COc1cc(OC)c(/C=C/[S+](=O)([O-])Cc2ccc(OC)c(NCC(=O)[O][Na])c2)c(OC)c1 | 123% | 105% | 125% | 125% | 118% | 75.9% | 29.5% | 28.2% | 27% | 21.9% | 13.4% | 109% | 107% | 115% | 112% | 111% | 66.3% | 20% | 17.8% | 15.2% | 9.59% | 7.67% | 121% | 122% | 122% | 120% | 121% | 24.1% | 24.3% | 18.8% | 10.1% | 7.92% | 8.13%
O=C(Nc1ccccc1-c1cn2c(CN3CCNCC3)csc2n1)c1cnc2ccccc2n1 | 61.2% | 97.4% | 109% | 98.1% | 81.4% | 81.1% | 90.5% | 67.5% | 72.5% | 48.3% | 1.98% | 71.4% | 107% | 95.2% | 103% | 76% | 84.4% | 94.8% | 67.4% | 54.3% | 59.2% | 2.64% | 56.4% | 93.2% | 84.5% | 86.5% | 65.4% | 80.1% | 79.5% | 52.6% | 53.9% | 37.4% | 2.76%
COc1ccc(-n2nc(C(N)=O)c3c2C(=O)N(c2ccc(N4CCCCC4=O)cc2)CC3)cc1 | 99.5% | 116% | 132% | 142% | 120% | 137% | 134% | 130% | 133% | 145% | 128% | 120% | 136% | 117% | 124% | 101% | 120% | 136% | 145% | 136% | 154% | 136% | – | – | – | – | – | – | – | – | – | – | –
CN(C)[C@H]\1[C@@H]2C[C@H]3C(=C(O)\[C@]2(O)C(=O)\C(=C1O)C(N)=O)/C(=O)C4=C(O)C=CC=C4[C@@]3(C)O | 92.6% | 88.5% | 81.5% | 101% | 92.5% | 90.8% | 92.7% | 86.6% | 85.2% | 90.1% | 78.3% | 113% | 118% | 114% | 102% | 83.7% | 104% | 108% | 96.8% | 93.2% | 109% | 93% | 118% | 108% | 128% | 129% | 89.8% | 108% | 126% | 116% | 59.4% | 116% | 100%
CC/1=C(/N2[C@H](SC1)[C@H](NC(=O)[C@H](N)\C3=C\C\C=C/C3)C2=O)C(O)=O | 79.3% | 87.2% | 94% | 86.5% | 82.9% | 97.1% | 95.8% | 91.2% | 93.5% | 111% | 102% | 95.8% | 106% | 120% | 98.1% | 115% | 120% | 111% | 118% | 107% | 113% | 120% | 88.8% | 112% | 98% | 87.4% | 109% | 117% | 114% | 107% | 124% | 114% | 113%
CN1CCCN=C1/C=C/c1cccs1.O=C(O)c1cc2ccccc2c(Cc2c(O)c(C(=O)O)cc3ccccc23)c1O | 113% | 126% | 114% | 128% | 120% | 135% | 118% | 119% | 113% | 115% | 91.9% | 113% | 118% | 128% | 119% | 105% | 128% | 129% | 105% | 105% | 92.9% | 15% | – | – | – | – | – | – | – | – | – | – | –
